We go through 30 compounds from patent publication US9073835B2, “N-acylthiourea and N-acylurea inhibitors of the Hedgehog protein signalling pathway” (Centre National De La Recherche Scientifique, priority 2008, dated 2015).

The subject of this assay is Hedgehog protein signaling pathway. In words: Inhibition of SAG-induced alkaline phosphatase activity (differentiation) in C3H10T1/2 cells. It is filed as cell-based. The note with it: Mus musculus; for inhibition at 10 µM: C3H 10T1/2, 10 μM test compound, percentage of alkaline phosphatase activity induced by SAG; for IC50: C3H 10T1/2, after induction by 0.1 μM SAG. How it is done: The effect of compounds with formula (I) as claimed in the invention on inhibition of the Hedgehog protein signaling pathway was determined by analysis of differentiation in the pluripotent fibroblast cell line C3H10T1/2 after activation of this pathway in these cells using a synthetic activator: SAG.
The compounds with formula (I) to be tested were dissolved in dimethylsulfoxide to a concentration of 10 mM, then stored at a temperature of −20° C. until use.
The pluripotent fibroblast cell line C3H10T1/2 (ATCC) was cultivated under the conditions recommended by the ATCC. These cells were activated using 0.1 μM of SAG, employing the methods described by Chen et al., Proc. Natl. Acad. Sci. USA, 2002, 99, 14071 and Frank-Kamenetsky et al., J. Biol., 2002, 1, 10.
Activation with SAG provokes differentiation of the cell line and allows them to express alkaline phosphatase. It is then possible to measure the activity of the Hedgehog protein signaling pathway by measuring the alkaline phosphatase activity.
The C3H10T1/2 cells were plated onto 96-well plates at a density of […], 24 hours before addition of the test compounds in a concentration of 1 nM to 30 μM and in the presence of 0.1 μM of SAG using DMEM supplemented with 10% fetal calf serum as the culture medium. The tests were carried out in quadruplicate. The plates were then incubated for 5-6 days at a temperature of 37° C. in an atmosphere of 5% CO2. The cells were washed in a cold phosphate buffer (“Phosphate Buffer Serum”: PBS) then lysed by sonication at 4° C. in 50 μl of a solution containing 0.9% of NaCl and 0.2% of Triton X-100.
By way of comparison, the activity of a known inhibitor of the Hedgehog protein signaling pathway, CURIS 61 414, as described, for example, by Frank-Kamenetsky M. et al. (J. Biol., 2002, 1, 10), was tested under the same conditions as those used to test the various compounds with formula (I) as claimed in the invention.
The alkaline phosphatase activity measurement in the lysates obtained was then carried out using the method described by Pepinsky et al. (J. Biol. Chem., 1998, 273, 14037). After adding 100 μl of reaction buffer (200 mM Tris-HCl; pH 10.5; 0.4 M of 2-amino-2-methylpropanol and 8 mM of MgCl2) and 50 μl of substrate (4 mM of disodium p-nitrophenyl phosphate), the lysates were incubated at 37° C. for 30-60 min, then the optical density was read at a wavelength of 415 nm.

Broadly, the inhibition is how much of the control response was suppressed. Read a low inhibition as a response near the control. What is called IC50 is the point on the concentration scale where inhibition reaches its midpoint. Higher therefore signals weaker potency. In turn, `COc1cc(C(=O)NC(=S)Nc2cccc(NC(=O)c3ccccc3Cl)c2)cc(OC)c1OC` [Compound 2, N-[[[3-(2-chloro-benzoylamino)phenyl]amino]thioxomethyl]-3,4,5-methoxy-benzamide] registered an inhibition at 10 µM greater than 80% and an IC50 of 1 to 3 µM. In turn, `COc1cccc(C(=O)Nc2cccc(NC(=S)NC(=O)c3cc(OC)c(OC)c(OC)c3)c2)c1` [Compound 3, N-[[[3-(3-methoxy-benzoylamino)phenyl]amino]thioxomethyl]-3,4,5-methoxy-benzamide] yielded an inhibition at 10 µM greater than 80% and an IC50 of 1 to 3 µM. With `COc1ccccc1C(=O)Nc1cccc(NC(=S)NC(=O)c2cc(OC)c(OC)c(OC)c2)c1` [Compound 4, N-[[[3-(2-methoxy-benzoylamino)phenyl]amino]thioxomethyl]-3,4,5-methoxy-benzamide], the inhibition at 10 µM was greater than 80% and the IC50 was in the range of 1 to 3 µM. Compound `COc1cc(C(=O)NC(=S)Nc2cccc(NC(=O)c3ccc(-c4ccccc4)cc3)c2)cc(OC)c1OC` [Compound 5, N-[[[3-(4-phenyl-benzoylamino)phenyl]amino]thioxomethyl]-3,4,5-methoxy-benzamide] registered an inhibition at 10 µM of 20 to 80% and an IC50 of 0.01 to 1 µM. Compound `COc1cc(C(=O)NC(=O)Nc2cccc(NC(=O)c3ccc(-c4ccccc4)cc3)c2)cc(OC)c1OC` [Compound 7, N-[[[3-(4-phenyl-benzoylamino)phenyl]amino]oxomethyl]-3,4,5-methoxy-benzamide] displayed an inhibition at 10 µM of 20 to 80%. Take `COc1cc(C(=O)NC(=S)Nc2cccc(NC(=O)C3CCCCC3)c2)cc(OC)c1OC` [Compound 8, N-[[[3-(-cyclohexylcarboxylamino)phenyl]amino]thioxomethyl]-3,4,5-methoxy-benzamide]: the inhibition at 10 µM was 20 to 80%. On the same count and under the same terms, as for `COc1cc(C(=O)NC(=S)Nc2cccc(NC(=O)c3ccc4ccccc4c3)c2)cc(OC)c1OC` [Compound 9, N-[[[3-(2-naphthoylamino)phenyl]amino]thioxomethyl]-3,4,5-methoxy-benzamide], the figure is 20 to 80%; as for `COc1cc(C(=O)NC(=S)Nc2cccc(NC(=O)C(C)C)c2)cc(OC)c1OC` [Compound 10, N-[[[3-(isopropoylcarboxylamino)phenyl]amino]thioxomethyl]-3,4,5-methoxy-benzamide], 5 to 20%; as for `COc1cc(C(=O)NC(=S)Nc2cccc(NC(=O)c3ccncc3)c2)cc(OC)c1OC` [Compound 11, N-[[[3-(4-pyridocarboxylamino)phenyl]amino]thioxomethyl]-3,4,5-methoxy-benzamide], greater than 80%. Compound `COc1cc(C(=O)NC(=S)Nc2cccc(NC(=O)c3cccc4ccccc34)c2)cc(OC)c1OC` [Compound 12, N-[[[3-(1-naphthoylamino)phenyl]amino]thioxomethyl]-3,4,5-methoxy-benzamide] yielded an inhibition at 10 µM of 20 to 80%. `COc1cc(C(=O)NC(=S)Nc2cccc(NC(=O)c3ccc(Cl)cc3)c2)cc(OC)c1OC` [Compound 13, N-[[[3-(4-chloro-benzoylamino)phenyl]amino]thioxomethyl]-3,4,5-methoxy-benzamide] returned an inhibition at 10 µM greater than 80% and an IC50 of 0.01 to 1 µM. Consider `COc1cc(C(=O)NC(=S)Nc2cccc(NC(=O)c3ccco3)c2)cc(OC)c1OC` [Compound 14, N-[[[3-(2-furoylamino)phenyl]amino]thioxomethyl]-3,4,5-methoxy-benzamide], for which the inhibition at 10 µM was 20 to 80%. `COc1cc(C(=O)NC(=S)Nc2cccc(NC(=O)c3cccs3)c2)cc(OC)c1OC` [Compound 15, N-[[[3-(2-thiophenoylamino)phenyl]amino]thioxomethyl]-3,4,5-methoxy-benzamide]: the inhibition at 10 µM fell in the range of 20 to 80%. As for `COc1cc(C(=O)NC(=O)Nc2cccc(NC(=O)c3ccc4ccccc4c3)c2)cc(OC)c1OC` [Compound 16, N-[[[3-(2-naphthoylamino)phenyl]amino]oxomethyl]-3,4,5-methoxy-benzamide], the inhibition at 10 µM fell in the range of 5 to 20%.

`COc1cc(C(=O)NC(=O)Nc2cccc(NC(=O)C(C)C)c2)cc(OC)c1OC` [Compound 17] came in with an inhibition at 10 µM greater than 80%. `COc1cc(OC)cc(C(=O)NC(=S)Nc2cccc(NC(=O)c3ccccc3)c2)c1` [Compound 18, N-[[[3-(benzoylamino)phenyl]amino]thioxomethyl]-3,5-methoxy-benzamide] yielded an inhibition at 10 µM greater than 80% and an IC50 of 1 to 3 µM. With `CCOc1c(OC)cc(C(=O)NC(=S)Nc2cccc(NC(=O)c3ccccc3)c2)cc1OC` [Compound 19, N-[[[3-(benzoylamino)phenyl]amino]thioxomethyl]-3,5-methoxy-4-ethoxy-benzamide], the inhibition at 10 µM is greater than 80% and the IC50 lay within 0.01 to 1 µM. As to `CCOc1cc(C(=O)NC(=S)Nc2cccc(NC(=O)c3ccccc3)c2)cc(OC)c1OCC` [Compound 20, N-[[[3-(benzoylamino)phenyl]amino]thioxomethyl]-3,4-ethoxy-5-methoxy-benzamide], the inhibition at 10 µM was greater than 80% and the IC50 lay within 0.01 to 1 µM. For `COc1cc(C(=O)NC(=S)Nc2cccc(NC(=O)c3ccccc3)c2)cc2c1OCO2` [Compound 21, N-[[[3-(benzoylamino)phenyl]amino]thioxomethyl]-3,4-methylenedioxy-5-methoxy-benzamide], in that order: greater than 80% and 1 to 3 µM. Turning to `COc1ccc(C(=O)NC(=S)Nc2cccc(NC(=O)c3ccccc3)c2)c(OC)c1` [Compound 22, N-[[[3-(benzoylamino)phenyl]amino]thioxomethyl]-2,4-methoxy-benzamide], the inhibition at 10 µM lay in the range of 20 to 80% and the half-maximal inhibitory concentration (IC50) was in the range of 1 to 3 µM. Compound `CCOc1cc(C(=O)NC(=S)Nc2cccc(NC(=O)c3ccccc3)c2)cc(OCC)c1OCC` [Compound 23, N-[[[3-(benzoylamino)phenyl]amino]thioxomethyl]-3,4,5-ethoxy-benzamide] yielded an inhibition at 10 µM greater than 80% and an IC50 of 0.01 to 1 µM.

`COc1cc(C(=O)NC(=S)Nc2ccc(F)c(NC(=O)c3ccccc3)c2)cc(OC)c1OC` [Compound 24, N-[[[4-fluoro-3-(benzoylamino)phenyl]amino]thioxomethyl]-3,4,5-methoxy-benzamide] yielded an inhibition at 10 µM greater than 80%.

In the case of `COc1cc(C(=O)NC(=S)Nc2ccc(Cl)c(C(=O)Nc3ccccc3)c2)cc(OC)c1OC` [Compound 25, N-[[[4-chloro-3-(phenylamino)carbonyl]amino]thioxomethyl]-3,4,5-methoxy-benzamide], the inhibition at 10 µM was greater than 80%. The compound `COc1ccc(NC(=S)NC(=O)c2cc(OC)c(OC)c(OC)c2)cc1NC(=O)c1ccccc1` [Compound 26, N-[[[4-methoxy-3-(benzoylamino)phenyl]amino]thioxomethyl]-3,4,5-methoxy-benzamide] gave an inhibition at 10 µM of 20 to 80%. The same measure, in the same setting: under `COc1cc(C(=O)NC(=S)Nc2ccc(C)c(NC(=O)c3ccccc3)c2)cc(OC)c1OC` [Compound 27, N-[[[4-methyl-3-(benzoylamino)phenyl]amino]thioxomethyl]-3,4,5-Methoxy-benzamide] stands 20 to 80%; under `O=C(NC(=S)Nc1cccc(NC(=O)c2ccccc2)c1)c1ccc2c(c1)OCCO2` [Compound 28, N-[[[3-(benzoylamino)phenyl]amino]thioxomethyl]-3,4-ethylenedioxo-benzamide], 5 to 20%. `CCOc1cc(C(=O)NC(=O)Nc2cccc(NC(=O)c3ccccc3)c2)cc(OCC)c1OCC` [Compound 29, N-[[[3-(benzoylamino)phenyl]amino]oxomethyl]-3,4,5-ethoxy-benzamide] showed an inhibition at 10 µM of 20 to 80%. As to `COc1cc(C(=O)NC(=O)Nc2cccc(NC(=O)c3ccccc3)c2)cc2c1OCO2` [Compound 30, N-[[[3-(benzoylamino)phenyl]amino]oxomethyl]-3,4-methylenedioxy-5-methoxy-benzamide], the inhibition at 10 µM was in the range of 5 to 20%. `COc1cc(C(=O)NC(=O)Nc2ccc(Cl)c(NC(=O)c3ccccc3)c2)cc(OC)c1OC` [Compound 33, N-[[[4-chloro-3-(benzoylamino)phenyl]amino]oxomethyl]-3,4,5-methoxy-benzamide] returned an inhibition at 10 µM of 20 to 80%.

`COc1cc(C(=O)NC(=S)Nc2ccc(Cl)c(NC(=O)c3ccccc3)c2)cc(OC)c1OC` [Compound 34, N-[[[4-chloro-3-(benzoylamino)phenyl]amino]thioxomethyl]-3,4,5-methoxy-benzamide] showed an inhibition at 10 µM greater than 80% and an IC50 of 0.01 to 1 µM.
